Results from patent publication US10966964B2, “Method for preparing pharmaceutical composition comprising pyrrolo-fused six-membered heterocyclic compound” (Jiangsu Hengrui Medicine Co., Ltd., priority 2016, dated 2021).

Test: Water solubility and moisture stability of the active ingredient (statement)
Format: physicochemical
Details: compound of formula (I) or a pharmaceutically acceptable salt thereof
Text: Since the compound of formula (I) or a pharmaceutically acceptable salt thereof has poor water solubility, and is unstable in the presence of moisture, water cannot be used as a solvent for wet granulation. When the compound of formula (I) or a pharmaceutically acceptable salt thereof is formulated into a pharmaceutical composition by using a conventional preparation method, the resulting composition is difficult to dissolve rapidly and keep its quality stable. There is a need to find a suitable method to obtain a stable composition with a rapid dissolution.

- stability in the presence of moisture (in words): unstable
- water solubility (in words): poor
SMILES: CCN(CC)CCN1CCc2[nH]c(/C=C3\C(=O)Nc4ccc(F)cc43)c(C)c2C1=O.O=C(O)C[C@H](O)C(=O)O [compound of formula (I), 5-(2-diethylamino-ethyl)-2-(5-fluoro-2-oxo-1,2-dihydro-indol-3-ylidene-methyl)-3-methyl-1,5,6,7-tetrahydro-pyrrolo[3,2-c]pyridin-4-one]
